Data as given in patent US6649797B2, “Compounds and methods of use to treat infectious diseases” (The Picower Institute for Medical Research, priority 1996, dated 2003).

Experiments:
[1] = In vitro metabolism with mouse liver post-mitochondrial supernatant and NADPH; assay type: in vitro ADME
Procedure: Several female ND4 Swiss Webster mice were euthanized by carbon dioxide inhalation and the livers excised and rinsed with ice cold phosphate buffered saline (pH 7.4). The livers were minced, gently homogenized in 50 mM phosphate buffer (pH 7.4) with a Dounce homogenizer, and centrifuged at 9600× g for 20 min. The post-mitochondrial supernatant was kept, glycerol added to 20%, and frozen at −70° C in 1.0 ml aliquots until used. For each incubation, 1.0 ml of a 1.0 mg/ml drug solution was added to 3.0 ml of 50 mM phosphate buffer (pH 7.4), 1.0 ml of 2 mg/ml NADPH in 50 mM phosphate (pH 7.4), and 1.0 ml of the post-mitochondrial supernatant. Five hundred μl of each incubate was then immediately transferred to an ice-cold tube to provide the zero-time sample, and addition 500 μl aliquots removed to ice-cold tubes at 8, 15, 30, and 60 min. The samples were then extracted, and analyzed by HPLC as described in section 7.1. Control incubations were also performed where drug or post-10 mitochondrial supernatant was omitted. […] Peaks in the CNI compound incubations which increased over time, and were not present in control samples lacking the enzyme preparation were treated as putative metabolites.

Plasmodium berghei NYU-2 = assay: Four day suppression test in Plasmodium berghei infected mice; assay type: in vivo; details: 50 mg/kg i.p. once daily for four days, P≦0.01
Procedure: FIG. 9. The activity of CNI-0294 against Plasmodium berghei infected mice. Female ND4 Swiss Webster mice were infected with infected erythrocytes and then treated once daily, for four days, with 50 mg/kg CNI-0294, or with distilled water. Six hours after the last dose, thin blood smears were made from each of the animals and the parasitemia was determined. The bars represent the median parasitemia (n=4 for controls and n=5 for treated).
The antimalarial activity of CNI-0294 in vivo was assessed by infecting female ND4 Swiss Webster mice with 100 μl of Plasmodium berghei NYU-2 infected mouse erythrocytes (50% parasitemia) by intraperitoneal injection. The animals were subsequently injected intraperitoneally once per day on days 1-4 of the infection with 0.5 ml water or 0.5 ml of 50 mg/kg CNI-0294 in water. Four hours after the final injection, small blood samples were taken from the tail, and thin smears stained with Dif-Quick (Baxter, Miami, Fla.). The parasitemia of control and treated animals was enumerated by inspection of at least 1000 erythrocytes in each animal.

[2] = test system: HIV-1 pre-integration complexes / karyopherin α; assay: Binding of HIV-1 pre-integration complexes to GST-karyopherin α; assay type: biochemical; details: for reduction of karyopherin α/HIV-1 binding: lysates of HIV-1RF infected H9 cells treated 2 hours, Phosphorimager
Procedure: Cytoplasmic lysates of H9 cells infected with HIV-1RF (upper panel) or HIV-like pseudovirions (bottom panel) were treated for 2 hours with various concentrations of CNI-H0294, and were then mixed with GST-karyopherin α immobilized on glutathione Sepharose beads. HIV-1 DNA or RNA that co-precipitated with karyopherin α was quantified as in A and B.
Cytoplasmic lysates prepared from H9 cells infected with HIV-1RF were treated with 10 μM CNI-H3094 (lane 1) or with 1 μM CNI-H0294 and 10 μM (lane 5), 5 μM (lane 4), 1 μM (lane 3), or no CNI-H3094 (lane 2). The amount of pre-integration complexes available for interaction with karyopherin α was quantified as in FIG. 10.
H9 cells were infected with equal amounts of wild-type HIV-1NLHX or with mutant HIV-1NLHX that lack Vpr (Vpr^−) or carry a mutation that inactivates the MA NLS (MA NLS^−). Infected cells were washed and incubated for 4 h. An aliquot of each sample was used to quantify the total HIV-1 DNA (FIG. 14A) and the rest was used to prepare cytoplasmic extracts. Extracts were incubated with 1 μM CNI-H0294 (FIG. 14B, lanes 2, 4, 6, 8) or were left untreated (lanes 1, 3, 5, 7). The amount of pre-integration complexes available for binding to karyopherin α was determined as in FIG. 10.
H9 cells were infected with HIV-1 or HIV-like pseudovirions (Haffar, et al., 1990, J. Virol., 64:2653-2659) at a multiplicity adjusted according to p24 content (50 ng p24 per 10^6 cells) The MA NLS^− virus contains substitutions of isoleucine residues for lysines in positions 26 and 27 of MA in an NLHX backbone (Westervelt., et al., 1992, J. Virol. 66:2577-2582), thus inactivating the NLS. The Vpr^− virus has the initiating ATG of the vpr gene changed to GTG, thus abolishing expression of this gene. The ΔMA NLS pseudovirions have leucine substituting for lysine in position 28 of MA. This mutation abrogates nuclear translocation of HIV-1 gag RNA in growth-arrested H9 cells infected with pseudovirions. After a 1 hour absorption, excess viruses or pseudovirions were washed away, and cells were incubated for an additional 2-3 hour period at 37° C. prior to analysis.
Cytoplasmic extracts were prepared by lysing cells in cold extraction buffer (10 mM KCl, 10 mM Tris-HCl [pH 7.6], 0.5 mM MgCl2, 1 μg/ml each of leupeptin and aprotinin, and 1 MM phenylmethylsulfonyl fluoride [PMSF]) by 20-30 strokes of a Dounce homogenizer under the control of phase-contrast microscopy. After removal of nuclei, cytoplasmic extract was cleared by centrifugation at 15,000 g for 10 min.
Cytoplasmic extracts prepared from HIV-1-or pseudovirion-infected H9 cells were adjusted to 0.14 M NaCl, 0.1% Tween 20 and precleared with glutathione-Sepharose beads for 30 min. at room temperature. Karyopherin α was expressed as a fusion protein with glutathione S-transferase (GST) which can bind glutathione beads in solution. GST-karyopherin α immobilized on Sepharose beads was then added (about 50 μg of immobilized karyopherin α per extract from 108 infected cells) and the mixture was incubated at room temperature for another 30 min. Beads were then pelleted by centrifugation and washed 3 times with PBS supplemented with 0.1% Tween 20, 1 μg/ml each of leupeptin and aprotinin, and 1 mM PMSF. HIV-1 DNA was isolated from the beads by SDS-proteinase K treatment with subsequent phenol-chloroform extraction, while pseudovirion gag RNA was isolated by RNazol (Biotecx Laboratories Inc.).

[3] = test system: nucleoplasmin-coated gold particles; assay: Nuclear import of nucleoplasmin-coated gold particles

## CC(=O)c1cc(Nc2cc(C)[n+](C)c(N)n2)cc(C(C)=O)c1 [CNI-0294, 2-Amino-4-(3,5-diacetylphenyl)amino-1,6-dimethylpyrimidinium chloride]
[1]
  metabolites produced: three minor and one major metabolite
[1]; 60 min incubation
  metabolic conversion (drug altered, as judged by peak area): 43.5%
Plasmodium berghei NYU-2
  lowering of parasitemia: 10 fold
[2]; 0.1 μM
  reduction of karyopherin α/HIV-1 binding: 8 fold
[2]; 1 μM, MA NLS^− complexes
  effect on binding of karyopherin α to complexes: had no effect
[2]; 1 μM, Vpr^− complexes
  diminished binding of karyopherin α to complexes: 95%
[2]; 1 μM
  reduction of karyopherin α/HIV-1 binding: 25 fold
[2]; 1 μM, wild-type (wt) HIV-1NLHX complexes
  diminished binding of karyopherin α to complexes: 95%
[2]; 10 μM (FIG. 13A)
  interaction of pre-integration complexes with karyopherin α: blocked the interaction
[3]
  block of nuclear import of nucleoplasmin-coated gold particles: did not block
